Reference: ChEMBL document CHEMBL4406802, “Human disorders associated with inflammation and the evolving role of natural products to overcome” (Eur J Med Chem, 2019)
In brackets after ≈: the same amount, converted by molar mass. Each block holds one compound with its values, some of them ahead of it.

How the values were obtained:
RAW264.7 [1] = experiment: Antiinflammatory activity in mouse RAW264.7 cells assessed as inhibition of LPS-induced nitric oxide production; assay type: functional, cell-based
[2] = biological target: T1, Prostaglandin G/H synthase 2 (Ovis aries, UniProt P79208); experiment: Inhibition of recombinant ovine COX2 using arachidonic acid as substrate preincubated for 15 mins followed by arachidonic acid addition measured after 2 mins by ELISA
T1 sequence (P79208 whole entry): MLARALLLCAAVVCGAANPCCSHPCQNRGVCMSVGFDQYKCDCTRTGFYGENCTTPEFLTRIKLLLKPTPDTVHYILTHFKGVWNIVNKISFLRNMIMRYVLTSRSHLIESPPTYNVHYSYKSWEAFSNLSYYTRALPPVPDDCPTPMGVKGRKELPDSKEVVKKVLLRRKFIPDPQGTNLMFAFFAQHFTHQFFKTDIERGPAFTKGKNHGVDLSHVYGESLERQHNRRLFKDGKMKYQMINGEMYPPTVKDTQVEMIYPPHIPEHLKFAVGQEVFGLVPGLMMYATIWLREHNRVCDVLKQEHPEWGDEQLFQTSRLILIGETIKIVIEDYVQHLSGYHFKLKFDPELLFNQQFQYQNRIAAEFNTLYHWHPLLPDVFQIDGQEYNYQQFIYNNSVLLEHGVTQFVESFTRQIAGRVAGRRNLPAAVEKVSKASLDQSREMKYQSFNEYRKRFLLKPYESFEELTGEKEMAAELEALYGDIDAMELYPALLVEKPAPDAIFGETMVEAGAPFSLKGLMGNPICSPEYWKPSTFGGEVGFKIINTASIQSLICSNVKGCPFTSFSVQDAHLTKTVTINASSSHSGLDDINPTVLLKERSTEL

[3] = biological target: T2, Prostaglandin G/H synthase 2 (Homo sapiens) (UniProt P35354); experiment: Inhibition of human COX2 at 10 uM using arachidonic acid as substrate measured for 300 secs intervals from 3 to 10 secs in presence of hematin by fluorescence assay relative to control
T2 sequence (whole entry): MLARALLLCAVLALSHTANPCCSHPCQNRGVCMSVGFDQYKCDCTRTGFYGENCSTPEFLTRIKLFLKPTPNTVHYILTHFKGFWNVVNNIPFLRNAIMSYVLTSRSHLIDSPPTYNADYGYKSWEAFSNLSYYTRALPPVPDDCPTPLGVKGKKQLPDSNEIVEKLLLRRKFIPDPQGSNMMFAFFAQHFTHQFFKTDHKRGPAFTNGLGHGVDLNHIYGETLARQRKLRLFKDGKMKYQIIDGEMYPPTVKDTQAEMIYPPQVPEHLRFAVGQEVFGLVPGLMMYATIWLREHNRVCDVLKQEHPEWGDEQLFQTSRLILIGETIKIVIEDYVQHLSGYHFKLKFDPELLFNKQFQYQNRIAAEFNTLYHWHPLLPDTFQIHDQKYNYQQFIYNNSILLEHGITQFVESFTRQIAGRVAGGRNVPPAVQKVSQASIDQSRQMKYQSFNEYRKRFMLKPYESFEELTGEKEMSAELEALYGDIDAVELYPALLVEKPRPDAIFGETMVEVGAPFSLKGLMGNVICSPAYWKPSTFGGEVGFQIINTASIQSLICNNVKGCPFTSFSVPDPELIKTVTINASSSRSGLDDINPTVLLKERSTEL

[4] = biological target: T3, Prostaglandin G/H synthase 2 (Homo sapiens, UniProt P35354); experiment: Inhibition of COX2 (unknown origin)
T3 sequence (P35354 whole entry): T2 sequence (whole entry)

RAW264.7 [5] = experiment: Antiinflammatory activity in mouse RAW264.7 cells assessed as inhibition of LPS-induced nitric oxide production after 24 hrs by Griess reagent based assay; assay type: functional, cell-based; conditions: RAW264.7, 24 h

Compound: CC(C)=CCc1c(-c2ccc(O)cc2O)oc2c(CC=C(C)C)c(O)cc(O)c2c1=O [KUWANON C]
IC50 (RAW264.7 [1]): 9.6 µg/mL

Compound: C[C@@H]1O[C@@H](O[C@@H]2[C@@H](O[C@@H]3OC[C@](O)(CO)[C@H]3O)[C@H](OCCc3ccc(O)c(O)c3)O[C@H](CO)[C@H]2OC(=O)/C=C/c2ccc(O)c(O)c2)[C@H](O)[C@H](O)[C@H]1O
IC50 [2]: 18.2 µM

Compound: CC(C)=CCc1c(O)ccc(C(=O)[C@H]2[C@@H](c3cc(O)cc4oc(-c5ccc(O)cc5O)cc34)C=C(C)C[C@@H]2c2ccc(O)cc2O)c1O
IC50 (RAW264.7 [1]): 12.8 µg/mL

Compound: CC[C@H](CC[C@@H](C)[C@H]1CC[C@H]2[C@@H]3CCC4=CC(=O)CC[C@]4(C)[C@H]3CC[C@]12C)C(C)C
IC50 (RAW264.7 [1]): 15.9 µM

Compound: C[C@@H]1O[C@@H](O[C@@H]2[C@@H](O)[C@H](OCCc3ccc(O)c(O)c3)O[C@H](CO)[C@H]2OC(=O)/C=C/c2ccc(O)c(O)c2)[C@H](O)[C@H](O[C@@H]2OC[C@](O)(CO)[C@H]2O)[C@H]1O
IC50 [2]: 21.5 µM

Compound: C=C(C)[C@@H]1CC[C@]2(C)CC[C@]3(C)[C@H](CCC4[C@@]5(C)[C@H](O)C[C@H](OC(C)=O)C(C)(C)[C@@H]5CC[C@]43C)[C@@H]12 (some centres not stated)
IC50 [4]: 540 µM

Compound: CC(C)=CCC/C(C)=C/Cc1c(O)cc2oc(-c3ccc(O)cc3)cc(=O)c2c1O
IC50 (RAW264.7 [1]): 4.1 µg/mL

Compound: C[C@@H]1O[C@@H](O[C@@H]2[C@@H](O)[C@H](OCCc3ccc(O)c(O)c3)O[C@H](CO)[C@H]2OC(=O)/C=C/c2ccc(O)c(O)c2)[C@H](O)[C@H](O)[C@H]1O [ACETOSIDE]
IC50 [2]: 11.3 µM

Compound: C=C(C)[C@@H]1CC[C@]2(C(=O)O)CC[C@]3(C)[C@H](CC[C@@H]4[C@@]5(C)CC[C@H](O)C(C)(C)[C@@H]5CC[C@]43C)[C@@H]12 [BETULINIC ACID]
IC50 (RAW264.7 [1]): 42.5 µM

Compound: CC(C)=CCc1c(O)ccc(C(=O)/C=C/c2ccc(O)c([C@H]3C=C(C)CC(c4ccc(O)cc4O)[C@H]3C(=O)c3ccc(O)cc3O)c2O)c1O (some centres not stated)
IC50 (RAW264.7 [5]): 8.5 µg/mL (≈ 12.5 µM)

Compound: CC(C)[C@@H](C)/C=C/[C@@H](C)[C@H]1CC[C@@H]2[C@]1(C)CC[C@H]1[C@]23C=C[C@]2(C[C@@H](O)CC[C@]12C)OO3 [ERGOSTEROL PEROXIDE]
IC50 (RAW264.7 [1]): 28.7 µM

Compound: CC(C)=CCc1c(O)ccc(C(=O)/C=C/c2ccc(O)cc2)c1O [ISOBAVACHALCONE]
IC50 (RAW264.7 [1]): 3.5 µg/mL

Compound: C=C(C)C(O)Cc1c(O)cc(O)c2c(=O)c(CC=C(C)C)c(-c3ccc(O)cc3O)oc12 (configuration not stated)
IC50 (RAW264.7 [1]): 6.6 µg/mL

Compound: C=C(C)[C@@H]1CC[C@]2(C)CC[C@]3(C)[C@H](CCC4[C@@]5(C)[C@H](O)C[C@H](O)C(C)(C)[C@@H]5CC[C@]43C)[C@@H]12 (some centres not stated)
IC50 [4]: 450 µM

Compound: CC(C)[C@@H]1CC[C@]2(C)[C@@H]3C(C=C4[C@@H]5CC(C)(C)CC[C@]5(C)CC[C@]42C)OC(=O)CC[C@]31C (some centres not stated)
IC50 [4]: 650 µM

Compound: CC[C@H](CC[C@@H](C)[C@H]1CC[C@H]2[C@@H]3CC=C4C[C@@H](O[C@@H]5O[C@H](CO)[C@@H](O)[C@H](O)[C@H]5O)CC[C@]4(C)[C@H]3CC[C@]12C)C(C)C [SITOGLUSIDE]
IC50 (RAW264.7 [1]): 77.4 µM

Results, then the compound that gave them:

IC50 (RAW264.7 [1]): 6.1 µg/mL
Compound: O=c1cc(-c2ccc(O)cc2O)oc2cc(O)cc(O)c12 [NORARTOCARPETIN]

inhibition [3]: 13.3%
Compound: O=C1c2c(O)cc(O)cc2OCC1Cc1ccc(O)cc1 (configuration not stated)

inhibition [3]: 54.4%
Compound: COc1cc(OC)c(C(=O)CCc2ccc(O)cc2)c(OC)c1

inhibition [3]: 73.8%
Compound: COc1cc(O)cc2c1C(=O)C(Cc1ccc(O)cc1)CO2 (configuration not stated)

IC50 (RAW264.7 [5]): 19.8 µg/mL (≈ 64.2 µM)
Compound: CC1=CCc2ccc3cc(-c4cc(O)cc(O)c4)oc3c2OC1

inhibition [3]: 101%
Compound: COc1cc(O)c2c(c1)OCC1(Cc3c1cc(OC)c(OC)c3O)C2=O (configuration not stated)

IC50 (RAW264.7 [5]): 5.3 µg/mL (≈ 13.5 µM)
Compound: COc1cc(O)cc(-c2cc3ccc(O)cc3o2)c1C/C=C(\C)CCC=C(C)C

inhibition [3]: 20.9%
Compound: COc1ccc(CC2COc3cc(O)cc(O)c3C2=O)cc1 (configuration not stated)

IC50 (RAW264.7 [1]): 10.3 µg/mL
Compound: O=C1CC(c2ccc(O)cc2O)Oc2cc(O)ccc21 (configuration not stated)

IC50 (RAW264.7 [5]): 7.9 µg/mL (≈ 27.6 µM)
Compound: COc1cc(O)cc(-c2cc3cc(O)c(OC)cc3o2)c1

IC50 (RAW264.7 [1]): 2.2 µg/mL
Compound: CC(C)=CCc1c(-c2ccc(O)cc2O)oc2cc3c(c(O)c2c1=O)CC(C(C)(C)O)O3 (configuration not stated)
